# Measured values from the supplement of paper PMC11451515.
# Tested on: P12-Ichikawa
# Experiment: cell viability relative to DMSO control; higher = less cytotoxic
# Conditions: 48 h
# Summary of the method: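 Three leukemia lines were tested: NOMO1 and SEM at 500 cells/well and P12-Ichikawa at 1000 cells/well. Each was adapted for at least four passages in each medium and seeded in 5 μl in 1536-well plates, and library compounds in DMSO were pin-dosed from 47 μM to 0.79 nM in 11 threefold steps. After 48 h at 37°C, CellTiter-Glo One luminescence was read. Viability is a percentage relative to DMSO wells on each plate, with cell-free wells as background.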
# [1] = HPLM + 10% dialyzed FBS, 0.000781 µM
# [2] = HPLM + 10% dialyzed FBS, 0.00234 µM
# [3] = HPLM + 10% dialyzed FBS, 0.00702 µM
# [4] = HPLM + 10% dialyzed FBS, 0.0211 µM
# [5] = HPLM + 10% dialyzed FBS, 0.0632 µM
# [6] = HPLM + 10% dialyzed FBS, 0.19 µM
# [7] = HPLM + 10% dialyzed FBS, 0.569 µM
# [8] = HPLM + 10% dialyzed FBS, 1.71 µM
# [9] = HPLM + 10% dialyzed FBS, 5.12 µM
# [10] = HPLM + 10% dialyzed FBS, 15.4 µM
# [11] = HPLM + 10% dialyzed FBS, 46.1 µM
# [12] = RPMI 5 mM glucose + 10% FBS, 0.000781 µM
# [13] = RPMI 5 mM glucose + 10% FBS, 0.00234 µM
# [14] = RPMI 5 mM glucose + 10% FBS, 0.00702 µM
# [15] = RPMI 5 mM glucose + 10% FBS, 0.0211 µM
# [16] = RPMI 5 mM glucose + 10% FBS, 0.0632 µM
# [17] = RPMI 5 mM glucose + 10% FBS, 0.19 µM
# [18] = RPMI 5 mM glucose + 10% FBS, 0.569 µM
# [19] = RPMI 5 mM glucose + 10% FBS, 1.71 µM
# [20] = RPMI 5 mM glucose + 10% FBS, 5.12 µM
# [21] = RPMI 5 mM glucose + 10% FBS, 15.4 µM
# [22] = RPMI 5 mM glucose + 10% FBS, 46.1 µM
# [23] = RPMI 5 mM glucose + 10% dialyzed FBS, 0.000781 µM
# [24] = RPMI 5 mM glucose + 10% dialyzed FBS, 0.00234 µM
# [25] = RPMI 5 mM glucose + 10% dialyzed FBS, 0.00702 µM
# [26] = RPMI 5 mM glucose + 10% dialyzed FBS, 0.0211 µM
# [27] = RPMI 5 mM glucose + 10% dialyzed FBS, 0.0632 µM
# [28] = RPMI 5 mM glucose + 10% dialyzed FBS, 0.19 µM
# [29] = RPMI 5 mM glucose + 10% dialyzed FBS, 0.569 µM
# [30] = RPMI 5 mM glucose + 10% dialyzed FBS, 1.71 µM
# [31] = RPMI 5 mM glucose + 10% dialyzed FBS, 5.12 µM
# [32] = RPMI 5 mM glucose + 10% dialyzed FBS, 15.4 µM
# [33] = RPMI 5 mM glucose + 10% dialyzed FBS, 46.1 µM
SMILES,cell viability [1] [%],cell viability [2] [%],cell viability [3] [%],cell viability [4] [%],cell viability [5] [%],cell viability [6] [%],cell viability [7] [%],cell viability [8] [%],cell viability [9] [%],cell viability [10] [%],cell viability [11] [%],cell viability [12] [%],cell viability [13] [%],cell viability [14] [%],cell viability [15] [%],cell viability [16] [%],cell viability [17] [%],cell viability [18] [%],cell viability [19] [%],cell viability [20] [%],cell viability [21] [%],cell viability [22] [%],cell viability [23] [%],cell viability [24] [%],cell viability [25] [%],cell viability [26] [%],cell viability [27] [%],cell viability [28] [%],cell viability [29] [%],cell viability [30] [%],cell viability [31] [%],cell viability [32] [%],cell viability [33] [%]
CC[C@@]1(O)C[C@H](O[C@H]2C[C@H](N(C)C)[C@H](O[C@H]3C[C@H](O)[C@H](O[C@H]4CCC(=O)[C@H](C)O4)[C@H](C)O3)[C@H](C)O2)c2c(cc3c(c2O)C(=O)c2c(O)cccc2C3=O)[C@H]1C(=O)OC,94.5,104,97,102,103,106,109,99.9,94.5,85.5,90.1,94.7,96.5,96.8,98.7,102,99,97.2,73.2,75.7,63.9,53.5,95.5,91.1,90.8,93.5,94.9,106,98.7,84.2,78,76.8,63.3
COC1=CC2=C(C=C1OC)[C@H]3[C@@H](CO2)OC4=C(C=CC5=C4\C=C/C(C)(C)O5)C3=O,95.5,103,96.9,99.9,93.5,102,93.5,69.7,67.7,65.6,2.52,89,94.9,98.9,95.9,69.6,80,62.2,52.1,48.3,46.5,3.34,84.1,89.1,93.8,88.9,74.4,79.1,69.3,62.1,58.5,60.9,3.49
CO[C@H]1C[C@@H]2CC[C@@H](C)[C@@](O)(O2)C(=O)C(=O)N2CCCC[C@H]2C(=O)O[C@H]([C@H](C)C[C@@H]2CC[C@@H](OCCO)[C@H](OC)C2)CC(=O)[C@H](C)/C=C(/C)[C@@H](O)[C@@H](OC)C(=O)[C@H](C)C[C@H](C)\C=C/C=C\C=C/1C,101,109,104,94.1,99.9,98.9,96.5,86.6,76.7,44.7,50.3,82.5,94,89.6,79.2,77.8,77.7,68.8,70.6,51.8,25.7,26.1,90.8,99.1,93.7,84.9,85.8,87.1,80.5,78.1,51.4,33.4,33.9
CCCCN(CCCC)C(=O)CN1C[C@H](c2ccc3c(c2)OCO3)[C@@H](C(=O)O)[C@@H]1c1ccc(OC)cc1,112,111,113,70.2,116,114,107,114,106,104,88.4,107,122,115,61.9,112,122,123,118,36.1,105,99.9,,,,,,,,,,,
OC(COC1=C2C(=O)\C=C(/OC2=CC=C1)C([O-])=O)COC3=C4C(=O)\C=C(/OC4=CC=C3)C([O-])=O,84.8,80.9,87.4,79.2,90.7,77.2,88.4,90.1,92,86.7,90.4,98.9,94.9,97,94.2,103,89,87.3,89.3,86.9,83.2,89.5,75.3,78.4,84.8,82.1,83.1,76.7,81.4,87.8,73.4,81.3,80.3
CC(C)(C)c1cc(C(=O)O)c(NC(=O)Nc2ccc3[nH]ncc3c2)s1,93.9,102,88.8,97.4,91.7,91.5,85.9,89.6,89.9,85.5,80.6,92.9,90.5,92.4,97.8,91.4,98.4,87.9,79.6,88.2,84.7,73.1,93.5,96.7,93,97.8,97.2,88.8,90,86.2,87.8,87.3,91
CC(NCc1ccc2c(c1)[nH]/c(=N\C(=O)c1ccc(-c3cn[nH]c3)s1)n2CC(C)(C)O)C(C)(C)C (configuration not stated),117,112,108,115,117,111,99.1,65,29.5,25.9,2.69,109,118,121,123,124,121,102,72.9,29.8,14.7,2.33,134,124,120,130,119,122,104,71,31.7,24.9,3.31
COc1cc([C@@H]2c3cc4c(cc3[C@@H](O[C@@H]3O[C@@H]5CO[C@@H](c6cccs6)O[C@H]5[C@H](O)[C@H]3O)[C@H]3COC(=O)[C@H]23)OCO4)cc(OC)c1O,89.9,91.6,92.9,93,90.1,88.2,83,9.83,71.4,6.48,6.62,77.3,87.9,89.2,95.8,83.3,80.1,68,6.52,55.9,5.89,4.88,84.4,91.5,88.5,82.3,82.7,74.6,73.7,8.53,59,6.51,4.64
COc1cccc2c1C(=O)c1c(O)c3c(c(O)c1C2=O)C[C@@](O)(C(C)=O)C[C@@H]3O[C@H]1C[C@H](N)[C@H](O)[C@H](C)O1,107,112,115,109,114,101,6.62,7.98,8.25,9.65,8.17,94.8,112,113,104,103,73.2,7.42,7.61,7.8,7.04,9.59,102,107,107,106,98,70.8,8.12,7.49,7.97,7.6,8.42
CN(C)CCN(Cc1ccc(Cl)cc1)c1ccccn1.Cl,89,97.1,95.9,97.1,96.9,94.9,97.5,101,95.2,96.4,101,80.3,80.4,85.4,95.1,80.5,87.9,90.4,87.7,90.4,85.2,82.4,83,82.3,84.4,87.9,84.2,79.2,82.4,80.3,83.3,78.8,73.2
COc1cc2ncnc(Nc3cccc(Br)c3)c2cc1OC,88.8,101,103,100,97.6,105,110,98.4,102,111,106,87.9,97.6,105,103,108,107,117,99.8,114,112,106,95.9,91.5,106,104,114,112,113,109,109,112,105
NC(=O)Nc1cc(-c2ccc(CN3CCOCC3)cc2)sc1C(N)=O,121,119,126,117,110,19.7,8.91,8.7,7.42,7.74,17.1,104,107,110,111,94.9,32.1,11.5,8.89,8.7,10,18.6,117,114,121,115,120,26.9,17.8,19.4,19,21.2,33.4
NCC(=O)Nc1ccc(-n2nc(C(F)(F)F)cc2-c2ccc3c(ccc4ccccc43)c2)cc1,,,,,,,,,,,,24.1,123,137,133,125,120,105,106,92.1,79.2,79,,,,,,,,,,,
CNCC(O)C(O)C(O)C(O)CO.O=C(O)c1ccc(-c2cc3cccnc3c(-c3ccc4nonc4c3)n2)cc1,105,112,115,106,119,116,120,119,112,117,99.4,113,107,122,107,123,127,122,116,121,109,102,104,114,111,104,115,114,119,120,113,104,89.4
Oc1cc(O)cc(/C=C/c2ccc(O)c(O)c2)c1,103,103,100,106,103,109,106,111,98,85.2,28.3,97.5,92.7,101,104,102,97.8,105,97,85,91.1,45.6,87.6,88.3,101,104,102,104,93,101,93.6,84.4,40.7
